How the values were obtained:
human amylin (hA) = biological target: T1, human amylin (hA) (Homo sapiens, UniProt P10997); test: Thioflavin-T assay, inhibition of amylin fibril formation; type: biochemical
T1 construct: Human amylin, also known as islet amylin amyloid polypeptide (IAPP), is a 37-residue peptide hormone
T1 sequence (P10997 34-70 limits assumed): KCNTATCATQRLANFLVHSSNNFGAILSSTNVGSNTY
Protocol: (§1) The ability of the compounds to inhibit human amylin (hA) fibril formation was assessed using the thioflavin-T assay, as described in J. F. Aitken et al., Suppression by polycyclic compounds of the conversion of human amylin into insoluble amylin amyloid., Biochem J., 374 (2003), 779-784. Inhibition was assessed at three hA:compound ratios (1:1, 1:0.1, 1:0.01) for each compound.
as §1, with “J” for “J.,”, “(2003)” for “(2003),”

[1] = Solubility and physical characteristics (1 M NaOH / 1 M HCl titration); settings: for soluble during initial suspension and on titration and pH adjustment: Example 12, titrated down to pH 8-9 with 1 M HCl
Source text: (§2) The compounds were titrated down to pH 8-9 with 1 M HCl and solubility determined immediately, and following overnight and longer term storage.
Light yellow solid. […] Add 1M NaOH.

[2] = for soluble in water: pH 11; for solubility in words at acid pH: pH 1.8; for solubility in words at alkaline pH (1 M NaOH): pH 11.1
Source text: as §2
Light yellow solid. […] Add 1M NaOH.

| soluble during initial suspension and on titration and pH adjustment [1] | soluble in water [2] | solubility in words at acid pH [2] | solubility in words at alkaline pH (1 M NaOH) [2] | Structure (SMILES) | further results |
| --- | --- | --- | --- | --- | --- |
| 100% | 100% |  |  | COc1cccc(NC(=O)CC(=O)c2ccc(O)c(O)c2)n1 [Compound 1] | inhibition of hA fibril formation (human amylin (hA); Example 12, FIG. 1B, hA:compound ratio 1:0.1): Inhibition of hA fibril formation was observed |
|  |  |  |  | O=c1cc(-c2ccc(O)cc2)nc2cccc(O)n12 [Compound 5] | inhibition of hA fibril formation (human amylin (hA); Example 14, ratio not stated at the place): little inhibition; appearance after adding 1 M HCl, pH 8.9 ([1]; Example 14): slightly cloudy, some precipitation; solubility at pH 7.4 ([2]; pH 7.4): lack of solubility; solubility below pH 10 ([2]; pH 10): not soluble; solubility in words after adding 1 M NaOH again, pH 10.4 ([2]; pH 10.4): completely soluble; soluble on addition of 1 M NaOH ([2]; pH 10.6): approx. 70%; solubility in words after leaving 30 min in 1M NaOH ([2]; pH 11.3): completely soluble |
|  |  | Completely insoluble | Completely insoluble | O=c1cc(-c2cccc(O)c2)nc2cccc(O)n12 [Compound 6] |  |
|  |  | Completely insoluble | Completely insoluble | COc1ccc(-c2cc(=O)n3c(O)cccc3n2)cc1OC [Compound 7] |  |
| 95% | 100% |  |  | COc1ccnc(NC(=O)CC(=O)c2ccc(O)c(O)c2)c1 [Compound 9] |  |

Reference: patent US20220041591A1, “COMPOUNDS FOR TREATING DIABETES AND/OR RELATED CONDITIONS” (AUCKLAND UNISERVICES LIMITED, priority 2018, published 2022)
